Experimental data taken from patent publication US12590091B2, “1H-pyrrolo[3,2-C]pyridine and 1H-pyrrolo[2,3-C]pyridine derivatives as TLR9 inhibitors for the treatment of fibrosis” (BRISTOL-MYERS SQUIBB COMPANY, priority 2020, dated 2026).
pIC50: −log10 of the molar value.

The molecules below were run against T1, human TLR8 (Homo sapiens, UniProt Q9NR97) (assay: TLR8 inhibition reporter assay (HEK-Blue cells, SEAP reporter)). Details: HEK-Blue cells overexpressing human TLR8, stimulated with R848 15.9 μM, 22 hour incubation.
T1 construct: host or cells: HEK-Blue cells
T1 sequence (Q9NR97 27-1041): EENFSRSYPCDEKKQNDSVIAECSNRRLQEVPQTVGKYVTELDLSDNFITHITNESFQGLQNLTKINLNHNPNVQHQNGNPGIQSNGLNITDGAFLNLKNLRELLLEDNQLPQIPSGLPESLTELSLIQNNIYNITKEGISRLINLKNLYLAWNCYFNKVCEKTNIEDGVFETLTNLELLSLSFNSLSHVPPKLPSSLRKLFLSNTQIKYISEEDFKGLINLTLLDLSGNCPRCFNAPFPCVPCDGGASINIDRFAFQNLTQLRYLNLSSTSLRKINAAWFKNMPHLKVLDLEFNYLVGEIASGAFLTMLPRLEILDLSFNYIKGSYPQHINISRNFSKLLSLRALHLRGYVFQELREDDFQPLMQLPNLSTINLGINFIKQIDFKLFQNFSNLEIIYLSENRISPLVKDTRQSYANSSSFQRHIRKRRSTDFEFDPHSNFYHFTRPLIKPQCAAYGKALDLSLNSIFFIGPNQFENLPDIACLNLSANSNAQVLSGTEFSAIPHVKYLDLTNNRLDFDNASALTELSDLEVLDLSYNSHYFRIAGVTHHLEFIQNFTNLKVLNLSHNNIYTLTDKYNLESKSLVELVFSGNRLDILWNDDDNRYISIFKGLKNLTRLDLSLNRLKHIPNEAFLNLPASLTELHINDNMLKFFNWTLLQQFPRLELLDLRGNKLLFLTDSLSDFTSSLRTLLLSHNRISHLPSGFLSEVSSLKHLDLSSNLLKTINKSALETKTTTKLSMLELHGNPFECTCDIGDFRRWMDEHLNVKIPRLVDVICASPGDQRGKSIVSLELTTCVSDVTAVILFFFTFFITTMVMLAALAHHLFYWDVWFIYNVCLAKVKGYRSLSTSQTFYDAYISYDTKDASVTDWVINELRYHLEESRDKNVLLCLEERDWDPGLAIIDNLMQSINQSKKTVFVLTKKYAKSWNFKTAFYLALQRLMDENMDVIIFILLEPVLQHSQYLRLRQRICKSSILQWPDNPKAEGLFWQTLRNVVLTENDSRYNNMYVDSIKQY
Type: cell-based
Procedure: TLR7/8/9 Inhibition Reporter Assays
HEK-Blue™-cells (Invivogen) overexpressing human TLR7, TLR8 or TLR9 receptors were used for screening inhibitors of these receptors using an inducible SEAP (secreted embryonic alkaline phosphatase) reporter gene under the control of the IFN-β minimal promoter fused to five NF-κB and AP-1-binding sites. Briefly, cells are seeded into Greiner 384 well plates (15000 cells per well for TLR7, 20,000 for TLR8 and 25,000 for TLR9) and then treated with test compounds in DMSO to yield a final dose response concentration range of 0.05 nM-50 μM. After a 30 minute compound pre-treatment at room temperature, the cells are then stimulated with a TLR7 ligand (gardiquimod at a final concentration of 7.5 μM), TLR8 ligand (R848 at a final concentration of 15.9 μM) or TLR9 ligand (ODN2006 at a final concentration of 5 nM) to activate NF-κB and AP-1 which induce the production of SEAP. After a 22 hour incubation at 37° C., 5% CO2, SEAP levels are determined with the addition of HEK-Blue™ Detection reagent (Invivogen), a cell culture medium that allows for detection of SEAP, according to manufacturer's specifications. The percent inhibition is determined as the % reduction in the HEK-Blue signal present in wells treated with agonist plus DMSO alone compared to wells treated with a known inhibitor.

Compound | pIC50
COc1ccc(-c2c(C)[nH]c3cnc(C4CCN(C5CCN(C(=O)c6ccccc6)CC5)CC4)cc23)cc1OC [Example 14, (4-(3-(3,4-dimethoxyphenyl)-2-methyl-1H-pyrrolo[2,3-c]pyridin-5-yl)-[1,4′-bipiperidin]-1′-yl) (phenyl)methanone] | < 4.30
COCCN1C2CCC1CN(c1ccc(-c3cc4c(cc(-c5ccc(S(C)(=O)=O)cc5)n4C)c(C)n3)cc1F)C2 [Example 75, 6-(3-fluoro-4-(8-(2-methoxyethyl)-3,8-diazabicyclo[3.2.1]octan-3-yl)phenyl)-1,4-dimethyl-2-(4-(methylsulfonyl)phenyl)-1H-pyrrolo[3,2-c]pyridine] | 5.02
COc1ccc(-c2cc3cnc(C4CCN(C(=O)CN5CCCCC5)CC4)cc3n2C)cc1OC [Example 25, 1-(4-(2-(3,4-dimethoxyphenyl)-1-methyl-1H-pyrrolo[3,2-c]pyridin-6-yl)piperidin-1-yl)-2-(piperidin-1-yl)ethan-1-one] | < 4.30
Cc1nc(-c2ccc(N3CCN(CC(C)C)CC3)cc2)cc2c1cc(-c1ccc(S(C)(=O)=O)cc1)n2C [Example 34, 6-(4-(4-isobutylpiperazin-1-yl)phenyl)-1,4-dimethyl-2-(4-(methylsulfonyl)phenyl)-1H-pyrrolo[3,2-c]pyridine] | < 4.30
COc1ccc(-c2c(C)n(C)c3cnc(-c4ccc(N5CCN(CC(C)(C)O)CC5)cc4)cc23)cc1OC [Example 3, 1-(4-(4-(3-(3,4-Dimethoxyphenyl)-1,2-dimethyl-1H-pyrrolo[2,3-c]pyridin-5-yl)phenyl)piperazin-1-yl)-2-methylpropan-2-ol] | 4.42
Cc1nc(-c2ccc(CN3CCN(CCC(C)(C)O)CC3)cc2)cc2c1cc(-c1ccc(S(C)(=O)=O)cc1)n2C [Example 60, 4-(4-(4-(1,4-dimethyl-2-(4-(methylsulfonyl)phenyl)-1H-pyrrolo[3,2-c]pyridin-6-yl)benzyl)piperazin-1-yl)-2-methylbutan-2-ol] | 5.34
Cc1nc(-c2ccc(C3(O)CCN(C(C)C)CC3)cc2F)cc2c1cc(-c1ccc(S(C)(=O)=O)cc1)n2C [Example 109, 4-(4-(1,4-dimethyl-2-(4-(methylsulfonyl)phenyl)-1H-pyrrolo[3,2-c]pyridin-6-yl)-3-fluorophenyl)-1-isopropylpiperidin-4-ol] | 5.96
COc1ccc(-c2c(C)[nH]c3cnc(-c4ccc(N5CCN(C(C)C)CC5)cc4)cc23)cc1OC [Example 2, 3-(3,4-dimethoxyphenyl)-5-(4-(4-isopropylpiperazin-1-yl)phenyl)-2-methyl-1H-pyrrolo[2,3-c]pyridine] | 4.54
COc1ccc(-c2c(C)c3cc(C4CCN(C5CCN(CC(C)C)CC5)CC4)ncc3n2C)cc1OC [Example 13, 2-(3,4-dimethoxyphenyl)-5-(1′-isobutyl-[1,4′-bipiperidin]-4-yl)-1,3-dimethyl-1H-pyrrolo[2,3-c]pyridine] | < 4.30
Cc1nc(-c2ccc(N3CCN4CCCC4C3)c(F)c2F)cc2c1cc(-c1ccc(S(C)(=O)=O)cc1)n2C (stereo not shown) [Example 99, 6-(2,3-difluoro-4-(hexahydropyrrolo[1,2-a]pyrazin-2(1H)-yl)phenyl)-1,4-dimethyl-2-(4-(methylsulfonyl)phenyl)-1H-pyrrolo[3,2-c]pyridine] | 5.22
COc1ccc(-c2c(C)[nH]c3cnc(C4CCN(C(=O)CN5CCCC5)CC4)cc23)cc1OC [Example 21, 1-(4-(3-(3,4-dimethoxyphenyl)-2-methyl-1H-pyrrolo[2,3-c]pyridin-5-yl)piperidin-1-yl)-2-(pyrrolidin-1-yl)ethan-1-one] | < 4.30
Cc1nc(-c2ccc([C@@]3(O)CCN(C(C)C)C(C)(C)C3)c(F)c2)cc2c1cc(-c1ccc(S(C)(=O)=O)cc1)n2C [Example 105, (R)-4-(4-(1,4-dimethyl-2-(4-(methylsulfonyl)phenyl)-1H-pyrrolo[3,2-c]pyridin-6-yl)-2-fluorophenyl)-1-isopropyl-2,2-dimethylpiperidin-4-ol] | 6.70
Cc1nc(-c2ccc(N3CCN(C4CCOCC4)CC3)cc2)cc2c1cc(-c1ccc(S(C)(=O)=O)cc1)n2C [Example 35, 1,4-dimethyl-2-(4-(methylsulfonyl)phenyl)-6-(4-(4-(tetrahydro-2H-pyran-4-yl)piperazin-1-yl)phenyl)-1H-pyrrolo[3,2-c]pyridine] | < 4.60
COCCN1CCN(c2ccc(-c3cc4c(cc(-c5ccc(S(C)(=O)=O)cc5)n4C)c(C)n3)cc2)CC1 [Example 38, 6-(4-(4-(2-methoxyethyl)piperazin-1-yl)phenyl)-1,4-dimethyl-2-(4-(methylsulfonyl)phenyl)-1H-pyrrolo[3,2-c]pyridine] | 4.93
CC(C)N1CCN(Cc2ccc(-c3cc4c(cc(-c5ccc(S(C)(=O)=O)cc5)n4C)c(C(C)(C)O)n3)cc2)CC1 [Example 125, 2-(6-(4-((4-isopropylpiperazin-1-yl)methyl)phenyl)-1-methyl-2-(4-(methylsulfonyl)phenyl)-1H-pyrrolo[3,2-c]pyridin-4-yl)propan-2-ol] | 4.95
COc1ccc(-c2c(C)[nH]c3cnc(C4CCN(c5cc(C)nc(C)c5)CC4)cc23)cc1OC [Example 6, 3-(3,4-Dimethoxyphenyl)-5-(1-(2,6-dimethylpyridin-4-yl)piperidin-4-yl)-2-methyl-1H-pyrrolo[2,3-c]pyridine] | 4.63
Cc1nc(-c2ccc(C3CCN(CCCO)CC3)cc2)cc2c1cc(-c1ccc(S(C)(=O)=O)cc1)n2C [Example 41, 3-(4-(4-(1,4-Dimethyl-2-(4-(methylsulfonyl)phenyl)-1H-pyrrolo[3,2-c]pyridin-6-yl)phenyl)piperidin-1-yl)propan-1-ol] | < 4.78
COCCN1CCN(c2ccc(-c3cc4c(cc(-c5ccc(S(=O)(=O)C6CC6)cc5)n4C)c(C)n3)cc2)CC1 [Example 48, 2-(4-(cyclopropylsulfonyl)phenyl)-6-(4-(4-(2-methoxyethyl)piperazin-1-yl)phenyl)-1,4-dimethyl-1H-pyrrolo[3,2-c]pyridine] | < 4.60
COc1ccc(-c2[nH]c3cnc(-c4ccc(N5CCN(C(C)C)CC5)cc4)cc3c2C)cc1OC [Example 1, 2-(3,4-Dimethoxyphenyl)-5-(4-(4-isopropylpiperazin-1-yl)phenyl)-3-methyl-1H-pyrrolo[2,3-c]pyridine] | 4.68
Cc1nc(-c2ccc(CN3CCC(C)(O)CC3)cc2)cc2c1cc(-c1ccc(S(C)(=O)=O)cc1)n2C [Example 59, 1-(4-(1,4-dimethyl-2-(4-(methylsulfonyl)phenyl)-1H-pyrrolo[3,2-c]pyridin-6-yl)benzyl)-4-methylpiperidin-4-ol] | 4.76
Cc1nc(-c2ccc(C3(O)CCN(C(C)C)CC3)cc2)cc2c1cc(-c1ccc(S(C)(=O)=O)cc1)n2C [Example 88, 4-(4-(1,4-dimethyl-2-(4-(methylsulfonyl)phenyl)-1H-pyrrolo[3,2-c]pyridin-6-yl)phenyl)-1-isopropylpiperidin-4-ol] | 4.98
COCCN1C2CCC1CN(c1cc(F)c(-c3cc4c(cc(-c5ccc(S(C)(=O)=O)cc5)n4C)c(C)n3)cc1F)C2 [Example 78, 6-(2,5-difluoro-4-(8-(2-methoxyethyl)-3,8-diazabicyclo[3.2.1]octan-3-yl)phenyl)-1,4-dimethyl-2-(4-(methylsulfonyl)phenyl)-1H-pyrrolo[3,2-c]pyridine] | 5.03
